Experimental data from patent US10294202B2, “Pyrrolidinones as herbicides” (FMC Corporation, priority 2013, dated 2019).
Where two headings read alike, the source gives them in different places.

Legend:
[1] = tested on: giant foxtail; test: Test A pre-/postemergence herbicide test; assay type: in vivo, Setaria faberii; settings: for pest or weed control at 125 g/ha / pest or weed control at 500 g/ha: Setaria faberi, 240 h, read-out: Plant response rating, Foxtail, Giant; for pest or weed control at 125 g/ha: 0 no effect, 100 complete control
How it was run: (§1)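 Both application timings used compounds in a non-phytotoxic solvent plus surfactant. Pre-emergence: soil sprayed directly after seeding into loam/sand. Post-emergence: foliage of 2–10 cm seedlings (1–2 leaves) sprayed. Injury rated ~10 days later, 0–100.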

[2] = tested on: corn; test: Test A pre-/postemergence herbicide test; assay type: in vivo, Zea mays; settings: for Corn plant response rating: Preemergence; for Corn plant response rating (crop injury, 0 = no effect, 100 = complete kill) at 125 g/ha / Corn plant response rating (crop injury, 0 = no effect, 100 = complete kill) at 500 g/ha: Zea mays, 240 h; for Corn plant response rating (crop injury, 0 = no effect, 100 = complete kill) at 125 g/ha: 100 complete control
How it was run: as §1

[3] = tested on: rice; test: Test B flooded paddy test; assay type: in vivo, Oryza sativa; settings: 500 g ai/ha, Flood; scale of 0 to 100 where 0 is no effect and 100 is complete control
How it was run: (§2)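 Plants grown to 2-leaf stage; pots flooded 3 cm above soil and compound applied directly into paddy water, depth held throughout. Visual rating against untreated controls after 13 to 15 days in greenhouse, 0 (no effect) to 100 (complete control).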

[4] = tested on: sedge, umbrella; test: Test B flooded paddy test; assay type: in vivo, Cyperus difformis; settings: 500 g ai/ha, Flood; scale of 0 to 100 where 0 is no effect and 100 is complete control
How it was run: as §2

[5] = tested on: ducksalad; test: Test B flooded paddy test; assay type: in vivo, Heteranthera limosa; settings: 500 g ai/ha, Flood; scale of 0 to 100 where 0 is no effect and 100 is complete control
How it was run: as §2

[6] = tested on: wheat (winter wheat); test: Test C pre-/postemergence herbicide test; assay type: in vivo, Triticum aestivum; settings: Preemergence; for Plant response rating, Wheat: scale 0 to 100
Source text: (§3) Seeds of plant species selected from blackgrass (Alopecurus myosuroides), ryegrass, Italian (Italian ryegrass, Lolium multiflorum), wheat (winter wheat, Triticum aestivum), galium (catchweed bedstraw, Galium aparine), corn (Zea mays), crabgrass, large (large crabgrass, Digitaria sanguinalis), foxtail, giant (giant foxtail, Setaria faberii), johnsongrass (Sorghum halepense), lambsquarters (Chenopodium album), morningglory (Ipomoea coccinea), nutsedge, yellow (yellow nutsedge, Cyperus esculentus), pigweed (Amaranthus retroflexus), ragweed (common ragweed, Ambrosia elatior), soybean (Glycine max), barnyardgrass (Echinochloa crus-galli), oilseed rape (Brassica napus), waterhemp (common waterhemp, Amaranthus rudis), kochia (Kochia scoparia), oat, wild (wild oat, Avena fatua), surinam grass (Brachiaria decumbens), foxtail, green (green foxtail, Setaria viridis), goosegrass (Eleusine indica), bromegrass, downy (downy bromegrass, Bromus tectorum), nightshade (eastern black nightshade, Solanum ptycanthum), cocklebur (common cocklebur, Xanthium strumarium), cupgrass, woolly (woolly cupgrass, Eriochloa villosa), bermudagrass (Cynodon dactylon), sunflower, (common oilseed sunflower, Helianthus annuus), Russian thistle (Salsola kali) and velvetleaf (Abutilon theophrasti) were planted into a blend of loam soil and sand and treated preemergence with test chemicals formulated in a non-phytotoxic solvent mixture which included a surfactant. At the same time, plants selected from these crop and weed species and also barley (winter barley, Hordeum vulgare), […]), chickweed (common chickweed, Stellaria media), deadnettle (henbit deadnettle, Lamium amplexicaule), and canarygrass (littleseed canarygrass, Phalaris minor) were planted in pots containing Redi-Earth® planting medium (Scotts Company, 14111 Scottslawn Road, Marysville, Ohio 43041) comprising spaghnum peat moss, vermiculite, wetting agent and starter nutrients and treated with postemergence applications of test chemicals formulated in the same manner. Plants ranged in height from 2 to 18 cm (1- to 4-leaf stage) for postemergence treatments. Treated plants and controls were maintained in a greenhouse for 13 to 15 days, after which time all species were compared to controls and visually evaluated. Plant response ratings, summarized in Table C, are based on a scale of 0 to 100 where 0 is no effect and 100 is complete control. A dash (-) response means no test result.

[7] = tested on: crabgrass, large; test: Test C pre-/postemergence herbicide test; assay type: in vivo, Digitaria sanguinalis; settings: Preemergence; for Plant response rating (scale of 0 to 100), Crabgrass, Large: 250 g ai/ha
Source text: as §3

[8] = tested on: johnsongrass; test: Test C pre-/postemergence herbicide test; assay type: in vivo, Sorghum halepense; settings: Preemergence; for Plant response rating (scale of 0 to 100), Johnsongrass: 250 g ai/ha
Source text: as §3

[9] = tested on: lambsquarters; test: Test C pre-/postemergence herbicide test; assay type: in vivo, Chenopodium album; settings: Preemergence; for Plant response rating, Lambsquarters: 125 g ai/ha; for Plant response rating (scale of 0 to 100), Lambsquarters: 250 g ai/ha
Source text: as §3

[10] = tested on: pigweed; test: Test C pre-/postemergence herbicide test; assay type: in vivo, Amaranthus retroflexus; settings: Preemergence
Source text: as §3

[11] = tested on: ragweed; test: Test C pre-/postemergence herbicide test; assay type: in vivo, Ambrosia elatior; settings: Preemergence
Source text: as §3

[12] = Postemergence, 125 g ai/ha, 0 to 100 scale, 0 is no effect, 100 is complete control
[13] = Postemergence, 500 g ai/ha, 0 to 100 scale (0 no effect, 100 complete control)
[14] = Preemergence, 125 g ai/ha, 0 to 100 scale where 0 is no effect and 100 is complete control
[15] = 31 g ai/ha, scale 0 to 100, 0 is no effect and 100 is complete control
[16] = 62 g ai/ha, scale 0 to 100 (0 no effect, 100 complete control)
[17] = 125 g ai/ha, scale 0 to 100 (0 no effect, 100 complete control)
[18] = Postemergence, 125 g ai/ha, visual rating on 0 to 100 scale (0 no effect, 100 complete control), approx. 10 days
[19] = Preemergence, 125 g ai/ha, visual rating on 0 to 100 scale (0 no effect, 100 complete control)
[20] = post-emergence, Postemergence, 125 g ai/ha, 0 to 100 scale
[21] = post-emergence, Postemergence, 500 g ai/ha, 0 to 100 scale (0 no effect, 100 complete control)
[22] = pre-emergence, preemergence, 500 g ai/ha, 0 to 100 scale
[23] = 125 g ai/ha, visual rating on 0 to 100 scale (0 no effect, 100 complete control)

| SMILES | Plant response rating, Foxtail, Giant [1, 13] | Plant response rating, Foxtail, Giant [1, 14] | Plant response rating, Corn [2, 13] | Plant response rating, Rice [3] | Plant response rating, Sedge, Umbrella [4] | Plant response rating, Ducksalad [5] | Wheat plant response rating [6, 16] | Crabgrass, Large plant response rating [7, 16] | Plant response rating (scale of 0 to 100), Crabgrass, Large [7] | Johnsongrass plant response rating [8, 16] | Plant response rating (scale of 0 to 100), Johnsongrass [8] | Lambsquarters plant response rating [9, 16] | Plant response rating (scale of 0 to 100), Lambsquarters [9] | Pigweed plant response rating [10, 16] | Ragweed plant response rating [11, 16] | Foxtail, Giant plant response rating [1, 19] | pest or weed control at 125 g/ha [1, 20] [%] | pest or weed control at 500 g/ha [1, 21] [%] | pest or weed control at 500 g/ha [1, 22] [%] | Corn plant response rating [2, 23] | further results |
| --- | --- | --- | --- | --- | --- | --- | --- | --- | --- | --- | --- | --- | --- | --- | --- | --- | --- | --- | --- | --- | --- |
| O=C1NCC(c2cc(F)cc(F)c2)C1C(=O)Nc1ccccc1Cl (racemic) [Compound 280] | 80 | 90 | 0 | 0 | 0 | 100 | 0 | 90 | 100 | 0 | 10 | 0 | 10 | 0 | 0 |  |  |  |  |  | Plant response rating, Foxtail, Giant [1, 12]: 70; Plant response rating, Foxtail, Giant ([1]; preemergence, 500 g ai/ha, 0 to 100 scale, 0 is no effect and 100 is complete control): 90; Plant response rating, Corn [2, 12]: 0; Wheat plant response rating [6, 15]: 0; Plant response rating (scale of 0 to 100), Wheat ([6]; 250 g ai/ha): 0; Crabgrass, Large plant response rating [7, 15]: 85; Plant response rating, Crabgrass, Large [7, 17]: 95; Johnsongrass plant response rating [8, 15]: 0; Plant response rating, Johnsongrass [8, 17]: 10; Lambsquarters plant response rating [9, 15]: 0; Plant response rating, Lambsquarters ([9]; scale 0 to 100 (0 no effect, 100 complete control)): 10; Pigweed plant response rating [10, 15]: 10; Plant response rating, Pigweed [10, 17]: 20; Plant response rating (scale of 0 to 100), Pigweed ([10]; 250 g ai/ha): 20; Ragweed plant response rating [11, 15]: 0; Plant response rating, Ragweed [11, 17]: 0; Plant response rating (scale of 0 to 100), Ragweed ([11]; 250 g ai/ha): 60 |
| O=C1NCC(c2ccc(OC(F)F)cc2)C1C(=O)Nc1cccc(F)c1F (racemic) [Compound 350] | 90 | 90 | 40 | 0 | 0 | 100 | 0 | 90 | 90 | 0 | 30 | 90 | 90 | 10 | 0 |  |  |  |  |  | Plant response rating, Foxtail, Giant [1, 18]: 80; Foxtail, Giant plant response rating ([1]; Preemergence, 500 g ai/ha, visual rating on 0 to 100 scale (0 no effect, 100 complete control)): 90; Plant response rating, Corn [2, 18]: 20; Plant response rating, Wheat ([6]; 125 g ai/ha): 0; Plant response rating, Wheat ([6]; 31 g ai/ha): 0; Plant response rating, Crabgrass, Large ([7]; 125 g ai/ha, scale 0 to 100): 90; Plant response rating, Crabgrass, Large ([7]; 31 g ai/ha, scale 0 to 100): 90; Plant response rating, Johnsongrass ([8]; 125 g ai/ha, scale 0 to 100): 0; Plant response rating, Johnsongrass ([8]; 31 g ai/ha, scale 0 to 100): 0; Plant response rating, Lambsquarters ([9]; scale 0 to 100): 90; Plant response rating, Pigweed ([10]; 125 g ai/ha, scale 0 to 100): 80; Plant response rating, Pigweed ([10]; 31 g ai/ha, scale 0 to 100): 0; Plant response rating, Ragweed ([11]; 125 g ai/ha, scale 0 to 100): 5; Plant response rating, Ragweed ([11]; 31 g ai/ha, scale 0 to 100): 0 |
| O=C1NCC(Br)(c2ccccc2)C1C(=O)Nc1ccccc1F (centres unmarked) [Compound 92, 4-bromo-N-(2-fluorophenyl)-2-oxo-4-phenyl-3-pyrrolidinecarboxamide] |  |  |  |  |  |  |  |  |  |  |  |  |  |  |  | 0 | 0 | 10 | 90 | 0 | Corn plant response rating (crop injury, 0 = no effect, 100 = complete kill) at 125 g/ha [2, 20]: 0%; Corn plant response rating (crop injury, 0 = no effect, 100 = complete kill) at 500 g/ha [2, 21]: 0%; Corn plant response rating (crop injury, 0 = no effect, 100 = complete kill) at 500 g/ha [2, 22]: 0% |
| O=C1NCC(c2ccccc2)C1(Br)C(=O)Nc1ccccc1F (centres unmarked) [Compound 93, 3-bromo-N-(2-fluorophenyl)-2-oxo-4-phenyl-3-pyrrolidinecarboxamide] |  |  |  |  |  |  |  |  |  |  |  |  |  |  |  | 80 | 10 | 60 | 90 | 0 | Corn plant response rating (crop injury, 0 = no effect, 100 = complete kill) at 125 g/ha [2, 20]: 0%; Corn plant response rating (crop injury, 0 = no effect, 100 = complete kill) at 500 g/ha [2, 21]: 0%; Corn plant response rating (crop injury, 0 = no effect, 100 = complete kill) at 500 g/ha [2, 22]: 0% |
